Assays:
Native MDH = target: T1, Native MDH (Apium graveolens, UniProt Q38707); details: cited from earlier work; for Relative reaction rate, Native MDH: relative to D-mannitol = 100%, natively expressed MDH
T1 construct: compared with the published data on the natively expressed MDH; host or cells: celery (Apium graveolens)
T1 sequence (Q38707 1-365): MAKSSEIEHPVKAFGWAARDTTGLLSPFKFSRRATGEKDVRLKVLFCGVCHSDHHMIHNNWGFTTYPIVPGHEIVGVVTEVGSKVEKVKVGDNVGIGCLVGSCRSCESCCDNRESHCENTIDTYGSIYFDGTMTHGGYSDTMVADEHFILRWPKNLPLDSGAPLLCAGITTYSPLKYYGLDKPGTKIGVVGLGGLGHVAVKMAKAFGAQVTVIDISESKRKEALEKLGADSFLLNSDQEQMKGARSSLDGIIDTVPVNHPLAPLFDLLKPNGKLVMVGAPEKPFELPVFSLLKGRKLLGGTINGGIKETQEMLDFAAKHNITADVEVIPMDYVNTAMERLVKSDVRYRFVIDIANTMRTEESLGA

Recombinant MDH = target: T2, Recombinant MDH (Apium graveolens, UniProt Q38707, C47S/T120I); test: Relative reaction rates of substrates with recombinantly expressed MDH (NADH formation measured spectrophotometrically); format: biochemical; details: relative to D-mannitol = 100%; MDH expressed in E. coli
T2 construct: made in house; host or cells: E. coli BL21 (pTTQ18 plasmid, tac promoter)
T2 sequence (Q38707 whole entry C47S/T120I): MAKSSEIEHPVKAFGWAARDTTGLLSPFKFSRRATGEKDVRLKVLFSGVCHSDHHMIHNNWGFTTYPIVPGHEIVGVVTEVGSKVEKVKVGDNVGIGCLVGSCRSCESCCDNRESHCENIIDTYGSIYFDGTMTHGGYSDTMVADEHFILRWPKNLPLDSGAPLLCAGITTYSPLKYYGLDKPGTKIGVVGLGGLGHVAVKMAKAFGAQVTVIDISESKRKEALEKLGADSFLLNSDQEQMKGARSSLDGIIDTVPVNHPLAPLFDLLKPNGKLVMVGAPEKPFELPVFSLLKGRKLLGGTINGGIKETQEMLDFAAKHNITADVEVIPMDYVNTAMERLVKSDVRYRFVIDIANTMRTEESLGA
Method: (§1) Many different variables were studied to maximize the expression and activity of MDH. MDH activity was monitored with the conversion of D-mannitol to D-mannose in the presence of NAD. The conversion was monitored spectrophotometrically by measuring the increasing concentration of NADH, the cofactor product of the oxidation of mannitol to mannose. For a given experiment, lysate protein concentrations were normalized.
Substrate specificity of the recombinant MDH was also tested and compared with the published data on the natively expressed MDH. Recombinant expression of MDH in E. coli could cause subtle modifications to the tertiary structure of MDH and modify the substrate specificity. Several known substrates of the MDH were tested.[16]
The reaction rate of L-fucitol for recombinant MDH was tested. […] The fucitol was not originally characterized in the previous literature on MDH.[38]

[1] = target: T3, Apium gravelons mannitol-1-dehydrogenase (MDH) (Apium graveolens, UniProt Q38707, C47S/T120I); test: MDH activity in lysate with added divalent metal salts, D-mannitol and NAD at pH 9.0; format: biochemical
T3 construct: made in house; host or cells: E. coli BL21 (pTTQ18 plasmid, tac promoter)
T3 sequence (Q38707 whole entry C47S/T120I): as above
Method: While not explicitly described in the literature, Apium gravelons mannitol-1-dehydrogenase (MDH) requires divalent metal ions, particularly Zn^2+ ions, for activity. The presence of ZnSO4 increases MDH activity. Cells expressing MDH were grown in rich media were harvested and lysed with BUGBUSTER® protein extraction reagent, Novagen, Madison, Wis. MDH activity was then tested with increasing concentrations of ZnSO4 in the presence of D-mannitol and NAD cofactor at pH 9.0. See, FIG. 1.

[2] = format: biochemical, Apium graveolens
Method: as §1
The pH profile for MDH for the oxidation reactions was also tested. […] This range could be beneficial for in vitro bioconversions with enzymatic NAD cofactor recycling methods. Increasing the activity of MDH at neutral pH could improve in vivo fermentation activity as the interior of the E. coli cell has a pH lower than 9.0.[21]
The recombinant MDH was tested for activity at various temperatures. Lysates containing expressed MDH were incubated with D-mannitol and NAD at pH 9.0. Activity was measured by measuring the increased NADH concentration spectrophotometrically at A340nm. […] See, FIG. 12.
The thermostability of recombinant MDH was also tested. Lysates containing MDH were incubated at various temperatures. Aliquots of MDH were removed at various times to measure MDH activity using the assay described above. See, FIG. 13.

OC[C@@H](O)C(O)[C@H](O)CO [D-Arabitol]
Relative reaction rate, Native MDH (Native MDH): 37% | Relative reaction rate, Recombinant MDH (Recombinant MDH): 33%

OC[C@@H](O)[C@@H](O)[C@H](O)[C@H](O)CO [D-Mannitol]
Relative reaction rate, Native MDH (Native MDH): 100% | Relative reaction rate, Recombinant MDH (Recombinant MDH): 100%

OC[C@@H](O)[C@@H](O)[C@H](O)[C@@H](O)CO [D-Sorbitol]
Relative reaction rate, Native MDH (Native MDH): 22% | Relative reaction rate, Recombinant MDH (Recombinant MDH): 5%

OC[C@@H](O)[C@@H](O)CO [Erythritol]
Relative reaction rate, Native MDH (Native MDH): 16% | Relative reaction rate, Recombinant MDH (Recombinant MDH): 4%

C[C@H](O)[C@@H](O)[C@@H](O)[C@H](O)CO [L-fucitol]
Relative reaction rate, Recombinant MDH (Recombinant MDH): 10.5%

O=S(=O)([O-])[O-].[Ni+2] [NiSO4]
Inhibition of MDH activity ([1]; 0.1 mM NiSO4 compared to MDH without NiSO4 added): approximately 50%

OC[C@@H](O)[C@@H](O)[C@@H](O)CO [Ribitol]
Relative reaction rate, Native MDH (Native MDH): 36% | Relative reaction rate, Recombinant MDH (Recombinant MDH): 50%

OC[C@@H](O)[C@H](O)[C@@H](O)CO [Xylitol]
Relative reaction rate, Native MDH (Native MDH): 0% | Conversion of xylitol to L-xylose by wild-type MDH (Native MDH; wild-type MDH): does not convert | Relative reaction rate, Recombinant MDH (Recombinant MDH): 1%

O=S(=O)([O-])[O-].[Zn+2] [Zn^2+, ZnSO4]
Increase of MDH activity ([1]; 1 μM Zn^2+ ions compared to no added zinc): 50% | Effect on MDH activity at concentrations above 1 μM ([1]; concentrations above 1 μM): inhibition

MDH: NAD-dependent mannitol-1-dehydrogenase from Apium graveolens, recombinantly expressed in E. coli
Thermostability (loss of activity on incubation) [2]: Most MDH activity was lost | Residual activity at pH 7.0 ([2]; pH 7.0, relative to maximum at pH 9.0): 10%
